What was measured:
[1] = Cupric ion reducing activity (CUPRAC)
hMAO-B = target: T1, hMAO-B (Homo sapiens, UniProt P27338); assay: Lineweaver-Burk plots, mode of inhibition and Ki; format: biochemical
T1 sequence (P27338 1-520): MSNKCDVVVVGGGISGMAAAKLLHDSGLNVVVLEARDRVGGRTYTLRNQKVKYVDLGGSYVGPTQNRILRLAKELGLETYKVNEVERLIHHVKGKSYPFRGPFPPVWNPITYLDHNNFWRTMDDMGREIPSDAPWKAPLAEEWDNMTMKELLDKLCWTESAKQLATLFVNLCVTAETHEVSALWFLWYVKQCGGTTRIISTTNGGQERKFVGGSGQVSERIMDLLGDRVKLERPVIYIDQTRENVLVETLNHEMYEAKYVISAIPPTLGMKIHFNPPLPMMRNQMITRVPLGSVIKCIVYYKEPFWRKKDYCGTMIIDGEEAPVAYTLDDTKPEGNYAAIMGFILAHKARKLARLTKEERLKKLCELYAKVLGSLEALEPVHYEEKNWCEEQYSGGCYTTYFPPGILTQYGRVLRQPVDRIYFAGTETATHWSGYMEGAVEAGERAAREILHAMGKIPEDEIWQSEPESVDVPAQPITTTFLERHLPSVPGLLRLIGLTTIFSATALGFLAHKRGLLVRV
Experimental: To construct Lineweaver–Burk plots, the enzyme reactions were carried out to a volume of 500 µL and the concentration of MAO-B was 0.015 mg protein/mL. All enzyme reactions and activity measurements were carried out as described above for the dialysis experiments. The first plot was constructed in the absence of inhibitor, while the remaining five plots were constructed in the presence of the following concentrations: ¼ × IC50, ½ × IC50, ¾ × IC50, 1 × IC50 and 1¼ × IC50. For each line, kynuramine was used at concentrations of 15–250 μM. The Ki value was estimated from a plot of the slopes of the Lineweaver–Burk plots versus inhibitor concentration (x-axis intercept equals –Ki).
To provide further support for the reversibility of MAO-B inhibition by compounds 4 and 37, a set of Lineweaver–Burk plots was constructed for each inhibitor at the following inhibitor concentrations: ¼ × IC50, ½ × IC50, ¾ × IC50, 1 × IC50, and 1¼ × IC50. The substrate, kynuramine, was used at 15–250 µM for each line. […] The lines of the plots intersect on the y-axis and a replot of the slopes versus inhibitor concentration yields a linear line, from which the enzyme-inhibitor dissociation constant (Ki) was estimated (Ki = −x-axis intercept).

[2] = Phosphomolybdenum assay (PhosphoMo), total antioxidant activity; conditions: concentration at which absorbance was 0.5

CC(=NNc1nc(-c2cccc([N+](=O)[O-])c2)cs1)c1cccs1 [Compound 4, 1-(4-(3-Nitrophenyl)thiazol-2-yl)-2-(1-(thiophen-2-yl)ethylidene)hydrazine]
EC50 [1]: 520 ± 20 µM | Ki (hMAO-B): 0.0026 µM | Mode of MAO-B inhibition (hMAO-B; Lineweaver-Burk plots): competitive | EC50 [2]: 1680 ± 90 µM
